Measured values reported in PubChem BioAssay AID248 (DTP/NCI, 2004).
Values joined by “and” are separate entries in the source; they are usually repeats but may differ in a detail not shown here. Identical values can stand only once. Toxic doses and inconclusive results are not listed. Cut-off read from the data, not from the text of the source: active = T/C of 150% or more; inactive = T/C below 125%.

Test system: L1210 leukemia ip in BDF1 mice, survival T/C
Test: NCI In Vivo Anticancer Drug Screen. Data for tumor model L1210 Leukemia (intraperitoneal) in B6D2F1 (BDF1) mice
Conditions: endpoint: mean survival time, higher = longer survival
Outline: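 Transplantable tumor model; survival measured in treated vs vehicle control mice. Value = treated/control.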

[1] = dose: 100.0 mg/kg/injection, schedule: Q04DX002 (ip), vehicle: Klucel (hydroxypropylcellulose) (HPC)
[2] = dose: 200.0 mg/kg/injection, schedule: Q04DX002 (ip), vehicle: Klucel (hydroxypropylcellulose) (HPC)
[3] = dose: 400.0 mg/kg/injection, schedule: Q04DX002 (ip), vehicle: Klucel (hydroxypropylcellulose) (HPC)
[4] = dose: 100.0 mg/kg/injection, schedule: Q01DX001 (ip), vehicle: saline
[5] = dose: 200.0 mg/kg/injection, schedule: Q01DX001 (ip), vehicle: saline
[6] = dose: 400.0 mg/kg/injection, schedule: Q01DX001 (ip), vehicle: saline
[7] = dose: 100.0 mg/kg/injection, schedule: Q04DX003 (ip), vehicle: saline with Tween-80
[8] = dose: 200.0 mg/kg/injection, schedule: Q04DX003 (ip), vehicle: saline with Tween-80
[9] = dose: 400.0 mg/kg/injection, schedule: Q04DX003 (ip), vehicle: saline with Tween-80
[10] = dose: 100.0 mg/kg/injection, schedule: Q01DX009 (ip), vehicle: saline with Tween-80
[11] = dose: 200.0 mg/kg/injection, schedule: Q01DX009 (ip), vehicle: saline with Tween-80
[12] = dose: 400.0 mg/kg/injection, schedule: Q01DX009 (ip), vehicle: saline with Tween-80
[13] = dose: 100.0 mg/kg/injection, schedule: Q01DX009 (ip), vehicle: Klucel (hydroxypropylcellulose) (HPC)
[14] = dose: 200.0 mg/kg/injection, schedule: Q01DX009 (ip), vehicle: Klucel (hydroxypropylcellulose) (HPC)
[15] = dose: 50.0 mg/kg/injection, schedule: Q01DX001 (ip), vehicle: saline
[16] = dose: 100.0 mg/kg/injection, schedule: Q04DX003 (ip), vehicle: Klucel (hydroxypropylcellulose) (HPC)
[17] = dose: 200.0 mg/kg/injection, schedule: Q04DX003 (ip), vehicle: Klucel (hydroxypropylcellulose) (HPC)
[18] = dose: 400.0 mg/kg/injection, schedule: Q04DX003 (ip), vehicle: Klucel (hydroxypropylcellulose) (HPC)

Measured: T/C

ClC(Cl)(Cl)c1cccc(-c2nc(C(Cl)(Cl)Cl)nc(C(Cl)(Cl)Cl)n2)c1
inactive: [1] 106 % of control | [2] 90 % of control | [3] 100 % of control

NC(=O)c1cccc(Cl)n1
inactive: dose: 12.5 mg/kg/injection, schedule: Q04DX002 (ip), vehicle: Klucel (hydroxypropylcellulose) (HPC) 92 % of control | dose: 25.0 mg/kg/injection, schedule: Q04DX002 (ip), vehicle: Klucel (hydroxypropylcellulose) (HPC) 87 % of control | dose: 50.0 mg/kg/injection, schedule: Q04DX002 (ip), vehicle: Klucel (hydroxypropylcellulose) (HPC) 90 % of control

Cc1ccon1
inactive: [4] 102 % of control | [5] 100 % of control | [6] 96 % of control

NS(=O)(=O)c1ccc(Cl)cc1
inactive: dose: 50.0 mg/kg/injection, schedule: Q01DX009 (ip), vehicle: saline 95 % of control | dose: 100.0 mg/kg/injection, schedule: Q01DX009 (ip), vehicle: saline 102 % of control | [1] 103 % of control | [7] 104 % of control | [2] 103 % of control | [8] 112 % of control | [3] 103 % of control

CC(=O)O[C@H]1CC[C@H]2[C@@H]3CC[C@H]4CC=C(C#N)C[C@]4(C)[C@H]3CC[C@]12C
inactive: dose: 50.0 mg/kg/injection, schedule: Q01DX001 (sc), vehicle: steriod suspending solution 107 % of control | dose: 100.0 mg/kg/injection, schedule: Q01DX001 (sc), vehicle: steriod suspending solution 104 % of control | dose: 200.0 mg/kg/injection, schedule: Q01DX001 (sc), vehicle: steriod suspending solution 102 % of control | dose: 400.0 mg/kg/injection, schedule: Q01DX001 (sc), vehicle: steriod suspending solution 101 % of control

COc1ccc2c(c1)OC(C)(C)C(c1ccccc1)C2c1ccc(OCCN2CCCC2)cc1 (stereo unspecified)
inactive: [7] 119 % of control | [8] 94 % of control | [9] 95 % of control

CCOc1ccc(/C=N/Nc2c3ccccc3nc3ccccc23)cc1OCC
inactive: [4] 92 % of control | [5] 95 % of control

CC1CCC=C2C(=O)C3OC(C)(C)C(C3O)C21C (stereo unspecified)
inactive: [10] 96 % of control | [7] 97 % of control | [11] 91 % of control | [8] 103 % of control | [12] 93 % of control | [9] 90 % of control

CSc1nc2ncncc2c(=O)[nH]1
inactive: dose: 100.0 mg/kg/injection, schedule: Q01DX001 (ip), vehicle: Klucel (hydroxypropylcellulose) (HPC) 96 % of control | [13] 98 % of control | dose: 200.0 mg/kg/injection, schedule: Q01DX001 (ip), vehicle: Klucel (hydroxypropylcellulose) (HPC) 100 % of control | [14] 102 % of control | dose: 400.0 mg/kg/injection, schedule: Q01DX001 (ip), vehicle: Klucel (hydroxypropylcellulose) (HPC) 101 % of control | dose: 400.0 mg/kg/injection, schedule: Q01DX009 (ip), vehicle: Klucel (hydroxypropylcellulose) (HPC) 95 % of control

CCC(C)C(CCN1CCCCC1)(CNC(=O)CN(CC)CC)c1cccc2ccccc12 (stereo unspecified)
inactive: dose: 100.0 mg/kg/injection, schedule: Q04DX003 (ip), vehicle: saline 103 % of control | dose: 200.0 mg/kg/injection, schedule: Q04DX003 (ip), vehicle: saline 103 % of control

OC1Cn2cc(Br)c[n+]2C1 (stereo unspecified)
inactive: [15] 94 % of control | [4] 116 % of control | [5] 102 % of control | [6] 96 % of control

Cc1nn(C2CC(O)C(CO)O2)c(=O)[nH]c1=O (stereo unspecified)
inactive: [4] 98 % of control | [5] 95 % of control | [6] 93 % of control

O=C(CC1(O)C(=O)Nc2ccccc21)c1ccccc1 (stereo unspecified)
inactive: [16] 101 % of control | [17] 96 % of control | [18] 96 % of control

O=C(Nc1ccccc1)Oc1ccc(OC(=O)Nc2ccccc2)c(Cl)c1
inactive: dose: 100.0 mg/kg/injection, schedule: Q04DX002 (ip), vehicle: saline + alcohol 92 % of control | dose: 200.0 mg/kg/injection, schedule: Q04DX002 (ip), vehicle: saline + alcohol 92 % of control

CC(C)=CCN(CC=C(C)C)CCC(O)(Cc1ccccc1)c1ccccc1 (stereo unspecified)
inactive: dose: 50.0 mg/kg/injection, schedule: Q01DX009 (ip), vehicle: Klucel (hydroxypropylcellulose) (HPC) 88 % of control | [13] 109 % of control | [16] 97 % of control | [14] 90 % of control | [17] 95 % of control

CC(C)CNC(=O)Cc1ccc(N(CCCl)CCCl)cc1
inactive: [16] 108 % of control | [17] 108 % of control | [18] 112 % of control

O=C(Nc1cccc(Cl)c1)c1cc(N=Nc2ccc([N+](=O)[O-])cc2Cl)ccc1O
inactive: [16] 103 % of control | [17] 104 % of control

N#CCCCCN=[N+]=[N-]
inactive: dose: 37.5 mg/kg/injection, schedule: Q04DX003 (ip), vehicle: saline 87 % of control | dose: 75.0 mg/kg/injection, schedule: Q04DX003 (ip), vehicle: saline 104 % of control | dose: 150.0 mg/kg/injection, schedule: Q04DX003 (ip), vehicle: saline 98 % of control

Cc1ccc(S(=O)(=O)N(C)c2cc(Cl)c(C(=O)O)c(Cl)c2)cc1
inactive: [16] 96 % of control | [17] 105 % of control | [18] 97 % of control

CCCCCCCCCCC(=O)CCCC
inactive: [10] 100 % of control | [11] 102 % of control | [12] 104 % of control

CCCCCOP(=O)(OCCCCC)C(c1ccccc1)c1ccccc1
inactive: dose: 100.0 mg/kg/injection, schedule: Q04DX002 (ip), vehicle: saline 100 % of control | dose: 200.0 mg/kg/injection, schedule: Q04DX002 (ip), vehicle: saline 100 % of control | dose: 400.0 mg/kg/injection, schedule: Q04DX002 (ip), vehicle: saline 96 % of control

O=[N+]([O-])c1cc(Cl)c(Cl)c([N+](=O)[O-])c1O
inactive: dose: 25.0 mg/kg/injection, schedule: Q01DX009 (ip), vehicle: acetone 92 % of control | dose: 50.0 mg/kg/injection, schedule: Q01DX009 (ip), vehicle: acetone 97 % of control | dose: 50.0 mg/kg/injection, schedule: Q04DX003 (ip), vehicle: acetone 95 % of control | [4] 95 % of control | dose: 100.0 mg/kg/injection, schedule: Q01DX009 (ip), vehicle: acetone 95 % of control | dose: 100.0 mg/kg/injection, schedule: Q04DX003 (ip), vehicle: acetone 89 % of control | dose: 150.0 mg/kg/injection, schedule: Q01DX009 (ip), vehicle: acetone 100 % of control | [5] 93 % of control

O=C1c2cc([N+](=O)[O-])ccc2-c2cc(Cl)c(Cl)cc21
inactive: [17] 91 % of control | [18] 94 % of control

O=C(CC1(O)CCCCC1)Nc1ccccc1
inactive: [15] 100 % of control | [4] 97 % of control | [5] 101 % of control | [6] 97 % of control

CC(=O)N(C)c1ccc(NC2=NCCO2)cc1
inactive: [7] 98 % of control | [8] 101 % of control | [9] 98 % of control

NNc1nc2c(N)ncnc2n1C1OC(CO)C(O)C1O (stereo unspecified)
inactive: dose: 100.0 mg/kg/injection, schedule: Q01DX005 (ip), vehicle: saline 104 % of control | dose: 200.0 mg/kg/injection, schedule: Q01DX005 (ip), vehicle: saline 107 % of control

O=[N+]([O-])c1ccc(N/N=C/c2ccc(/C=N/Nc3ccc([N+](=O)[O-])cc3)cc2)cc1
inactive: dose: 15.0 mg/kg/injection, schedule: Q01DX Z (ip), vehicle: carboxymethylcellulose (CMC) 116 % of control | dose: 30.0 mg/kg/injection, schedule: Q01DX Z (ip), vehicle: carboxymethylcellulose (CMC) 104 % of control | dose: 60.0 mg/kg/injection, schedule: Q01DX Z (ip), vehicle: carboxymethylcellulose (CMC) 98 % of control and 106 % of control | dose: 120.0 mg/kg/injection, schedule: Q01DX Z (ip), vehicle: carboxymethylcellulose (CMC) 96 % of control and 98 % of control | dose: 240.0 mg/kg/injection, schedule: Q01DX Z (ip), vehicle: carboxymethylcellulose (CMC) 98 % of control | dose: 240.0 mg/kg/injection, schedule: Q01DX Z (oral), vehicle: carboxymethylcellulose (CMC) 103 % of control | dose: 480.0 mg/kg/injection, schedule: Q01DX Z (ip), vehicle: carboxymethylcellulose (CMC) 95 % of control | dose: 480.0 mg/kg/injection, schedule: Q01DX Z (oral), vehicle: carboxymethylcellulose (CMC) 103 % of control | dose: 960.0 mg/kg/injection, schedule: Q01DX Z (oral), vehicle: carboxymethylcellulose (CMC) 103 % of control
